One series in a line: Solubility of cystine. The conditions noted are these: phosphate buffered saline, aqueous buffer; read-out: saturated solution of cystine. The series is classed as physicochemical.
The conditions of series [1]: rabbit, in vivo; cited from earlier work.
The conditions of series [2]: reported; cited from earlier work.

We go through 3 compounds from patent US12186425B2, “Devices and methods for reducing cystine crystals in vivo” (University of Florida Research Foundation, Inc., priority 2017, dated 2025).

Molecules are shown by their SMILES. Converted amounts (≈) assume the structure as drawn.

Regarding `N[C@@H](CSSC[C@H](N)C(=O)O)C(=O)O` [cystine], the solubility thermodynamic in the series “Solubility of cystine” was 110 µg/mL (≈ 458 µM).

In the case of `NCCS` [cysteamine, β-mercaptoethylamine], in series [1], the “eye drop concentration above which toxicity occurred” value is > 0.55%.

For `CC(C)(C)NC[C@H](O)COc1nsnc1N1CCOCC1` [timolol], the epithelium permeability in series [2] is on record as 1.2×10^−7 m/s.
